Target: T1, Recombinant HCV polymerase (Hepatitis C virus genotype 1b, UniProt P26663)
T1 construct: Recombinant HCV polymerase was tested for its ability to perform primer/template-directed transcription
Test: biochemical
Conditions: inhibition of polymerase-directed transcription; 30 min at 30° C; 30 nM enzyme; cpm data in triplicate
Procedure, shortened: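 Primer/template-directed RNA synthesis by 2.5 pmol HCV polymerase on poly(rC)300/biotin-dG12 with 1 μM GTP plus α-32P-GTP, in pH 7.2 Tris buffer with 10 mM MgCl2, for 30 min at 30 °C. Products were filter-captured and counted, with 1% DMSO final. IC50 was fitted from triplicate cpm; percent inhibition was reported where IC50 was impractical.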

T1 sequence (P26663 2420-3010): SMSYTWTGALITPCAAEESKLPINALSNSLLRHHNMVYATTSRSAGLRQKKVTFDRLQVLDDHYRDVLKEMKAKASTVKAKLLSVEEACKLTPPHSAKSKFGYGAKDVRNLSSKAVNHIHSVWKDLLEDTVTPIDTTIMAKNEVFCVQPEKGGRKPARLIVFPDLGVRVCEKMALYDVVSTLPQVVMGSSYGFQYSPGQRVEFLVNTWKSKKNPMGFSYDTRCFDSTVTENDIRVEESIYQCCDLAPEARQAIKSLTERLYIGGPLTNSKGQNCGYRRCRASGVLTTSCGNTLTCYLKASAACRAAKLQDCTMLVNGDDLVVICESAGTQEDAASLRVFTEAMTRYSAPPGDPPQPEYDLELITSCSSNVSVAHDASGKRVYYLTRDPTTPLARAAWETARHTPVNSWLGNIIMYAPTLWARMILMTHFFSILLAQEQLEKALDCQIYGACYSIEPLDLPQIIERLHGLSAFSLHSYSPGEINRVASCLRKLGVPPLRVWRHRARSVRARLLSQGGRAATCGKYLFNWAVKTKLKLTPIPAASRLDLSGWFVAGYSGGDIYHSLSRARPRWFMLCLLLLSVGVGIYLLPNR

| Structure (SMILES) | IC50 |
| --- | --- |
| CCCOc1cnc(CC)cc1CCC1(C2CCCC2)CC(O)=C(Cc2nc3nc(C)cc(C)n3n2)C(=O)O1 (stereo not drawn) [A(42), 6-Cyclopentyl-3-[(5,7-dimethyl[1,2,4]triazolo[1,5-a]pyrimidin-2-yl)methyl]-6-[2-(2-ethyl-5propoxypyridin-4-yl)ethyl]-4-hydroxy-5,6-dihydro-2H-pyran-2-one] | 4 nM |
| CCOc1cnc(CC)cc1CCC1(C2CCCC2)CC(O)=C(Cc2nc3ncc(C)cn3n2)C(=O)O1 (stereo not drawn) [A(43), 6-Cyclopentyl-6-[2-(5-ethoxy-2-ethylpyridin-4-yl)ethyl]-4-hydroxy-3-[(6-methyl[1,2,4]triazolo[1,5-a]pyrimidin-2-yl)methyl]-5,6-dihydro-2H-pyran-2-one] | 8 nM |
| CCCOc1cnc(CC)cc1CCC1(C2CCCC2)CC(O)=C(Cc2nc3ncc(C)cn3n2)C(=O)O1 (stereo not drawn) [A(46), 6-Cyclopentyl-6-[2-(2-ethyl-5-propoxypyridin-4-yl)ethyl]-4-hydroxy-3-[(6-methyl[1,2,4]triazolo[1,5-a]pyrimidin-2-yl)methyl]-5,6-dihydro-2H-pyran-2-one] | 6 nM |
| CCCOc1cc(O)c(CC)cc1CCC1(C2CCCC2)CC(O)=C(Cc2nc3ncc(C)cn3n2)C(=O)O1 (stereo not drawn) [A(47), 6-Cyclopentyl-6-[2-(5-ethyl-4-hydroxy-2-propoxyphenyl)ethyl]-4-hydroxy-3-[(6-methyl[1,2,4]triazolo[1,5-a]pyrimidin-2-yl)methyl]-5,6-dihydro-2H-pyran-2-one] | 5 nM |
| Cc1cnc2nc(CC3=C(O)CC(CCc4cc(CC(F)(F)F)nc(CC(F)(F)F)c4)(C4CCCC4)OC3=O)nn2c1 (stereo not drawn) [A(48), 6-{2-[2,6-Bis(2,2,2-trifluoroethyl)pyridin-4-yl]ethyl}-6-cyclopentyl-4-hydroxy-3-[(6-methyl[1,2,4]triazolo[1,5-a]pyrimidin-2-yl)methyl]-5,6-dihydro-2H-pyran-2-one] | 23 nM |
| CCCOc1cc(O)c(CCC2(C3CCCC3)CC(O)=C(Cc3nc4nc(C)cc(C)n4n3)C(=O)O2)cc1CC (stereo not drawn) [A(49), 6-Cyclopentyl-3-[(5,7-dimethyl[1,2,4]triazolo[1,5-a]pyrimidin-2-yl)methyl]-6-[2-(5-ethyl-2-hydroxy-4-propoxyphenyl)ethyl]-4-hydroxy-5,6-dihydro-2H-pyran-2-one] | 7 nM |
| CCCOc1cc(O)c(CCC2(C3CCCC3)CC(O)=C(Cc3nc4ncc(C)cn4n3)C(=O)O2)cc1CC (stereo not drawn) [A(50), 6-Cyclopentyl-6-[2-(5-ethyl-2-hydroxy-4-propoxyphenyl)ethyl]-4-hydroxy-3-[(6-methyl[1,2,4]triazolo[1,5-a]pyrimidin-2-yl)methyl]-5,6-dihydro-2H-pyran-2-one] | 4 nM |
| CCc1cc(CCC2(C3CCCC3)CC(O)=C(Cc3nc4nc(C)cc(C)n4n3)C(=O)O2)c(OCC(C)C)cc1O (stereo not drawn) [A(59)] | 3 nM |
| CCc1cc(CCC2(C3CCCC3)CC(O)=C(Cc3nc4nc(C)cc(C)n4n3)C(=O)O2)c(OCC2CCC2)cc1O (stereo not drawn) [A(60), 6-{2-[2-(Cyclobutylmethoxy)5-ethyl-4-hydroxyphenyl]ethyl}-6-cyclopentyl-3-[(5,7-dimethyl[1,2,4]triazolo[1,5-a]pyrimidin-2-yl)methyl]-4-hydroxy-5,6-dihydro-2H-pyran-2-one] | 3 nM |
| CCn1cc(CCC2(C3CCCC3)CC(O)=C(Cc3nc4nc(C)cc(C)n4n3)C(=O)O2)cn1 (stereo not drawn) [A(61), 6-Cyclopentyl-3[(5,7-dimethyl[1,2,4]triazolo[1,5-a]pyrimidin-2-yl)methyl]-6-[2-(1-ethyl-1H-pyrazol-4-yl)ethyl]-4-hydroxy-5,6-dihydro-2H-pyran-2-one] | 140 nM |
| Cc1cc(C)n2nc(CC3=C(O)CC(CCc4cnn(C(C)C)c4)(C4CCCC4)OC3=O)nc2n1 (stereo not drawn) [A(62), 6-Cyclopentyl-3-[(5,7-dimethyl[1,2,4]triazolo[1,5-a]pyrimidin-2-yl)methyl]-4-hydroxy-6-[2-(1-isopropyl-1H-pyrazol-4-yl)ethyl]-5,6-dihydro-2H-pyran-2-one] | 60 nM |
| CS(=O)(=O)c1ccc(CCC2(C3CCCC3)CC(=O)CC(=O)O2)cc1F (stereo not drawn) [A(63), 6-Cyclopentyl-6-{2-[3-fluoro-4-(methylsulfonyl)phenyl]ethyl}dihydro-2H-pyran-2,4(3H)-dione] | 18500 nM |

Source: patent US7151105B2, “Inhibitors of Hepatitis C virus RNA-dependent RNA polymerase, and compositions and treatments using the same” (Agouron Pharmaceuticals, Inc., priority 2004, dated 2006)
